{"source": "patent US9913809B1", "about": "“Anti-cancer activity of (E)-1-(3′,4′-dimethoxyphenyl) butadiene” (SAMI LABS LIMITED, priority 2016, dated 2018)", "key": {"[1]": {"system": "PANC-1 cancer cell line (pancreatic carcinoma cells)", "experiment": "MTT cytotoxicity assay, PANC-1", "type": "cell-based", "details": "Homo sapiens, PANC-1, pancreatic carcinoma", "experimental": "(§1) Human pancreatic PANC-1 cancer cell line (pancreatic carcinoma cells), human prostate DU145 cancer cell line (prostate carcinoma), human ovarian cancer SKOV3 (ovarian carcinoma) cell line, colon Caco-2 cancer cell line (Colon Carcinoma), lung A549 cancer cell line (Lung carcinoma), lymphoblastoma K562 cancer cell line, melanoma B16F1 cancer cell line and colorectal HCT cancer cell line (Colorectal carcinoma), were grown and cultured using standard protocols known in the art. The cancer cell lines were treated with DMPBD in varying concentrations for measuring cytotoxicity. The estimation of the viability assay of the cells was done by the MTT (3-(4,5-dimethylthiazol-2-yl)-2,5-diphenyltetrazolium bromide) colorimetric assay. The MTT Assay measures the cell proliferation rate and conversely, when metabolic events lead to apoptosis or necrosis, the reduction in cell viability. The data is analyzed by plotting cell number versus absorbance allowing the quantification of changes in cell proliferation. The rate of tetrazolium reduction is proportional to the rate of cell proliferation. […]\n(§2) The MTT Assay as performed was adapted from (1) Tim Mosmann. […] A tetrazolium-based colorimetric MTT assay to quantitate human monocyte mediated cytotoxicity against leukemic cells from cell lines and patients with acute myeloid leukemia. […]"}, "[2]": {"system": "DU145 cancer cell line (prostate carcinoma)", "experiment": "MTT cytotoxicity assay, DU145", "type": "cell-based", "details": "Homo sapiens, DU 145, prostate carcinoma", "experimental": "as §1, §2"}, "[3]": {"system": "SKOV3 (ovarian carcinoma) cell line", "experiment": "MTT cytotoxicity assay, SKOV3", "type": "cell-based", "details": "Homo sapiens, SK-OV-3", "experimental": "as §1, §2"}, "[4]": {"system": "Caco-2 cancer cell line (Colon Carcinoma)", "experiment": "MTT cytotoxicity assay, Caco-2", "type": "cell-based", "details": "Homo sapiens, Caco-2, colon carcinoma", "experimental": "as §1, §2"}, "[5]": {"system": "A549 cancer cell line (Lung carcinoma)", "experiment": "MTT cytotoxicity assay, A549", "type": "cell-based", "details": "Homo sapiens", "experimental": "as §1, §2"}, "[6]": {"system": "lymphoblastoma K562 cancer cell line", "experiment": "MTT cytotoxicity assay, K562", "type": "cell-based", "details": "Homo sapiens", "experimental": "as §1, §2"}, "[7]": {"system": "melanoma B16F1 cancer cell line", "experiment": "MTT cytotoxicity assay, B16F1", "type": "cell-based, human", "details": "Mus musculus, B16-F1", "experimental": "as §1, §2"}, "[8]": {"system": "HCT cancer cell line (Colorectal carcinoma)", "experiment": "MTT cytotoxicity assay, HCT", "type": "cell-based", "details": "Homo sapiens", "experimental": "as §1, §2"}, "P-selectin (CD 62P) [9]": {"system": "P-selectin (CD 62P)", "experiment": "Flow cytometry, P-selectin expression in LNCap prostate carcinoma cells", "type": "cell-based, human", "details": "DMPBD 70 μg/ml, TNF-alpha and IL-1beta 10 ng/ml, 72 hours"}, "L-selectin (CD 62L) [10]": {"system": "L-selectin (CD 62L)", "experiment": "Flow cytometry, L-selectin expression in LNCap prostate carcinoma cells", "type": "cell-based, human", "details": "DMPBD 20 μg/ml, TNF-alpha and IL-1beta 10 ng/ml, 72 hours"}, "P-selectin (CD 62P) [11]": {"system": "P-selectin (CD 62P)", "experiment": "Flow cytometry, P-selectin expression in K562 lymphoblastoma cells", "type": "cell-based, human", "details": "TNF-alpha and IL-1beta 10 ng/ml, 72 hours"}, "L-selectin (CD 62L) [12]": {"system": "L-selectin (CD 62L)", "experiment": "Flow cytometry, L-selectin expression in K562 lymphoblastoma cells", "type": "cell-based, human", "details": "DMPBD 20 μg/ml, TNF-alpha and IL-1beta 10 ng/ml, 72 hours"}, "P-selectin (CD 62P) [13]": {"system": "P-selectin (CD 62P)", "experiment": "Flow cytometry, P-selectin expression in HCT colorectal carcinoma cells", "type": "cell-based, human", "details": "TNF-alpha and IL-1beta 10 ng/ml, 72 hours"}, "L-selectin (CD 62L) [14]": {"system": "L-selectin (CD 62L)", "experiment": "Flow cytometry, L-selectin expression in HCT colorectal carcinoma cells", "type": "cell-based, human", "details": "TNF-alpha and IL-1beta 10 ng/ml, 72 hours"}, "P-selectin (CD 62P) [15]": {"system": "P-selectin (CD 62P)", "experiment": "Flow cytometry, P-selectin expression in pancreatic carcinoma cells", "type": "cell-based, human", "details": "flow cytometric studies"}, "E-selectin (CD 62E)": {"system": "E-selectin (CD 62E)", "experiment": "Flow cytometry, E-selectin expression in pancreatic carcinoma cells", "type": "cell-based, human", "details": "flow cytometric studies"}, "L-selectin (CD 62L) [16]": {"system": "L-selectin (CD 62L)", "experiment": "Flow cytometry, L-selectin expression in pancreatic carcinoma cells", "type": "cell-based, human", "details": "flow cytometric studies"}}, "data": [{"smiles": "C=C/C=C/c1ccc(OC)c(OC)c1", "note": "[DMPBD, (E)-1-(3′, 4′-Dimethoxyphenyl) butadiene]", "values": [{"measurement": "IC50", "setting": "[1]", "result": 4.2, "unit": "µg/mL"}, {"measurement": "IC50", "setting": "[2]", "result": 8.6, "unit": "µg/mL"}, {"measurement": "IC50", "setting": "[3]", "result": 13.5, "unit": "µg/mL"}, {"measurement": "IC50", "setting": "[4]", "result": 39.3, "unit": "µg/mL"}, {"measurement": "IC50", "setting": "[5]", "result": 30.2, "unit": "µg/mL"}, {"measurement": "IC50", "setting": "[6]", "result": 22.5, "unit": "µg/mL"}, {"measurement": "IC50", "setting": "[7]", "result": 26.4, "unit": "µg/mL"}, {"measurement": "IC50", "setting": "[8]", "result": 25.5, "unit": "µg/mL"}, {"measurement": "% Reduction of P-selectin expression", "setting": "P-selectin (CD 62P) [9]", "result": 11.1, "unit": "%"}, {"measurement": "% Reduction of L-selectin expression", "setting": "L-selectin (CD 62L) [10]", "result": 7.3, "unit": "%"}, {"measurement": "% Reduction of P-selectin expression", "setting": "P-selectin (CD 62P) [11]; DMPBD 10 μg/ml", "result": 11.6, "unit": "%"}, {"measurement": "% Reduction of P-selectin expression", "setting": "P-selectin (CD 62P) [11]; DMPBD 20 μg/ml", "result": 35.4, "unit": "%"}, {"measurement": "% Reduction of L-selectin expression", "setting": "L-selectin (CD 62L) [12]", "result": 30.3, "unit": "%"}, {"measurement": "% Reduction of P-selectin expression", "setting": "P-selectin (CD 62P) [13]; DMPBD 10 μg/ml", "result": 11.8, "unit": "%"}, {"measurement": "% Reduction of P-selectin expression", "setting": "P-selectin (CD 62P) [13]; DMPBD 20 μg/ml", "result": 27.8, "unit": "%"}, {"measurement": "% Reduction of L-selectin expression", "setting": "L-selectin (CD 62L) [14]; DMPBD 10 μg/ml", "result": 11.3, "unit": "%"}, {"measurement": "% Reduction of L-selectin expression", "setting": "L-selectin (CD 62L) [14]; DMPBD 20 μg/ml", "result": 21.1, "unit": "%"}, {"measurement": "expression of P-selectin", "setting": "P-selectin (CD 62P) [15]", "result": "significant fold decrease"}, {"measurement": "expression of E-selectin", "setting": "E-selectin (CD 62E)", "result": "significant fold decrease"}, {"measurement": "expression of L-selectin", "setting": "L-selectin (CD 62L) [16]", "result": "significant fold decrease"}]}]}
